Where two headings read alike, the source gives them in different places.
Legend:
FGFR2 (h) = FGFR2 (h) (Homo sapiens, UniProt P21802); test: FGFR2 (enzymatic assay), TR-FRET; assay type: biochemical; settings: read-out: FGFR 2 pIC50 (converted)
Method: In a final reaction volume of 30 μL, FGFR2 (h) (150 ng/ml) was incubated with 50 mM HEPES pH 7.5, 6 mM MnCl2, 1 mM DTT, 0.1 mM Na3VO4, 0.01% Triton-X-100, 500 nM Btn-Flt3 and 0.4 μM ATP in the presence of compound (1% DMSO final). […] Time-Resolved Fluorescence Resonance Energy Transfer (TR-FRET) signal (ex340 nm. Em 620 nm, em 655 nm) was measured afterwards and results are expressed in (Relative Fluorescence Units).

[1] = tested on: Ba/F3-Flt3-transfected cells in the presence of 10 ng/ml murine IL3; test: Ba/F3-Flt3 (plus IL3) cellular proliferation counterscreen, Alamar Blue; assay type: cell-based; settings: for IC50: Mus musculus, read-out: BAF3-FLT3 (PLUS IL3) 384 well pIC50 (converted)
FGFR3 (h) = FGFR3 (h) (Homo sapiens, UniProt P22607); test: FGFR3 (enzymatic assay), TR-FRET; assay type: biochemical; settings: read-out: FGFR 3 pIC50 (converted)
FGFR3 (h), sequence (P22607 23-806): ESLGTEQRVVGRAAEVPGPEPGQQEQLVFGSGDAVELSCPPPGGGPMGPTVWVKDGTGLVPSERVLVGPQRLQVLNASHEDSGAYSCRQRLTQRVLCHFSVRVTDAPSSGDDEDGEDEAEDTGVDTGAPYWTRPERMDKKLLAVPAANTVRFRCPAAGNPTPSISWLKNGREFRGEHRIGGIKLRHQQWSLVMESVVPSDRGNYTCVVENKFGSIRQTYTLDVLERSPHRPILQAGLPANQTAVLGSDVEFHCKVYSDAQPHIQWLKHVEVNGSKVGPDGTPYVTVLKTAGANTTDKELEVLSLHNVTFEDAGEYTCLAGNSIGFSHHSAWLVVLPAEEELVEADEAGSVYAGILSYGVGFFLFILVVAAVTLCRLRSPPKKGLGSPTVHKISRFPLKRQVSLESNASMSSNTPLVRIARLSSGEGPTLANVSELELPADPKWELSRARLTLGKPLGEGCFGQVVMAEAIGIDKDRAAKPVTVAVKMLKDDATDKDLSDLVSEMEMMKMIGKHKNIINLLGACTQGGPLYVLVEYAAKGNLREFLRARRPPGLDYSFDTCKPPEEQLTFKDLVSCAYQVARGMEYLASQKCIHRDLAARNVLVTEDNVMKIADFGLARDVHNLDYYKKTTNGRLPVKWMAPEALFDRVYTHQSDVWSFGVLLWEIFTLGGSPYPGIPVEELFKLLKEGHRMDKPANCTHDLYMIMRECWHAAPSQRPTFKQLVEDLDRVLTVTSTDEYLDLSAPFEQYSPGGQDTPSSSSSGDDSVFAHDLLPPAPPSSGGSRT
Method: (§1) In a final reaction volume of 30 μL, FGFR3 (h) (40 ng/ml) was incubated with 50 mM HEPES pH 7.5, 6 mM MnCl2, 1 mM DTT, 0.1 mM Na3VO4, 0.01% Triton-X-100, 500 nM Btn-Flt3 and 25 μM ATP in the presence of compound (1% DMSO final). […] Time-Resolved Fluorescence Resonance Energy Transfer (TR-FRET) signal (ex340 nm. Em 620 nm, em 655 nm) was measured afterwards and results are expressed in RFU (Relative Fluorescence Units).

[2] = tested on: Ba/F3-FGFR1-transfected cells in the presence of 10 ng/ml murine IL3; test: Ba/F3-FGFR1 (plus IL3) cellular proliferation counterscreen, Alamar Blue; assay type: cell-based; settings: for IC50: Mus musculus
Procedure, shortened: (§2)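 Ba/F3 cells transfected with FGFR1 were incubated with compound in RPMI-1640/10% FBS for 24 h at 37 °C, 5% CO2. Alamar Blue (resazurin) was then added for 4 h and fluorescence was read at ex 540/em 590 nm. The counterscreen used the same conditions plus 10 ng/ml murine IL3.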

[3] = target: Ba/F3-FGFR1-transfected cells (Homo sapiens, UniProt P11362); test: Ba/F3-FGFR1 (minus IL3) cellular proliferation assay, Alamar Blue; assay type: cell-based; settings: for BAF3-FGFR 1 (MIN IL3) 96 well pIC50: minus IL3, 96 well; for BAF3-FGFR 1 (MIN IL3) 384 well pIC50: minus IL3, 384 well
Ba/F3-FGFR1-transfected cells, sequence (P11362 whole entry, change not shown): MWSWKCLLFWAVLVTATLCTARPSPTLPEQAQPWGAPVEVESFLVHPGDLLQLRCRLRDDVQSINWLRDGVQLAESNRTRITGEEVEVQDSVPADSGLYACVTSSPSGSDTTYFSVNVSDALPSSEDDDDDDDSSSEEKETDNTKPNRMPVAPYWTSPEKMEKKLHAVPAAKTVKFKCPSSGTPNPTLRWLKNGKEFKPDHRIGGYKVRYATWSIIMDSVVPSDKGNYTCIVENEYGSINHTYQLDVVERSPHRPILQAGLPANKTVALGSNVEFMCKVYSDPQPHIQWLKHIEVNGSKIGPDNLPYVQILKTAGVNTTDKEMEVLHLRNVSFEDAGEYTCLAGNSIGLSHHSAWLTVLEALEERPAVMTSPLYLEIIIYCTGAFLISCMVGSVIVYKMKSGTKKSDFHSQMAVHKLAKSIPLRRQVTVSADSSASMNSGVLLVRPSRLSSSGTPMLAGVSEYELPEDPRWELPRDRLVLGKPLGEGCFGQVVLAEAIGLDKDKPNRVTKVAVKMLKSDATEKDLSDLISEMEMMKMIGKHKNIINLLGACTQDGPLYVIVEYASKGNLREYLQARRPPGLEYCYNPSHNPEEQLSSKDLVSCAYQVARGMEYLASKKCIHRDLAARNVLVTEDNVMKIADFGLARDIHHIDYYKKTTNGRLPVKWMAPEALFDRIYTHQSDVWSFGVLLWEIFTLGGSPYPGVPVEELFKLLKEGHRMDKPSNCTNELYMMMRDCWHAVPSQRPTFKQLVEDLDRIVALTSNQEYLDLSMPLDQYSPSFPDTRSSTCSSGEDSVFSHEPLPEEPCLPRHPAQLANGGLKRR
Procedure, shortened: as §2

FGFR4 (h) = FGFR4 (h) (Homo sapiens, UniProt P22455); test: FGFR4 (enzymatic assay), TR-FRET; assay type: biochemical; settings: read-out: FGFR 4 pIC50 (converted)
FGFR4 (h), sequence (P22455 22-802): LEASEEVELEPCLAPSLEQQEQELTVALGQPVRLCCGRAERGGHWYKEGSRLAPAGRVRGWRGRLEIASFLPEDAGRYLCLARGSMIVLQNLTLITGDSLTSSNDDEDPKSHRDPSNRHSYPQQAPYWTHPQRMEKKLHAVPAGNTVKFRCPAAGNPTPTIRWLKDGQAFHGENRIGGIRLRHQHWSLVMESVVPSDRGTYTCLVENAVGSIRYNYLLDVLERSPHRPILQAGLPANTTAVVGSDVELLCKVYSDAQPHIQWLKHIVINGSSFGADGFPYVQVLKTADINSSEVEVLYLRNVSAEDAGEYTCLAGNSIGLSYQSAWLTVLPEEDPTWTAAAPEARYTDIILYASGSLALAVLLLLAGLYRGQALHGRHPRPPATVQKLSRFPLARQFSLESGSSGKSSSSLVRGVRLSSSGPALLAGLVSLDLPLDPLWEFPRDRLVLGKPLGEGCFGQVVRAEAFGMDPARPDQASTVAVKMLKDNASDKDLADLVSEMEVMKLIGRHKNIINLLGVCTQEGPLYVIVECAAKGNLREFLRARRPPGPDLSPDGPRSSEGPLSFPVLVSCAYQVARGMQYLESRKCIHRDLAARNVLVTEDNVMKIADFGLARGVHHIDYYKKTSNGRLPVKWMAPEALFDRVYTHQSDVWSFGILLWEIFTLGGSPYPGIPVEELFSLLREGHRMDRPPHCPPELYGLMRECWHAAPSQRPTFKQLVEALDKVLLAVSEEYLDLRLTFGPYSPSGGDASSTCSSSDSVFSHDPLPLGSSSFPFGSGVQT
Method: as §1, with “FGFR4” for “FGFR3”, “(60” for “(40”, “5” for “25”

[4] = plus IL3, 96 well, read-out: BAF3-FGFR 1 (PLUS IL3) 96 well pIC50 (converted)
[5] = plus IL3, 384 well, read-out: BAF3-FGFR 1 (PLUS IL3) 384 well pIC50 (converted)

FGFR2 (h), sequence (P21802 22-821): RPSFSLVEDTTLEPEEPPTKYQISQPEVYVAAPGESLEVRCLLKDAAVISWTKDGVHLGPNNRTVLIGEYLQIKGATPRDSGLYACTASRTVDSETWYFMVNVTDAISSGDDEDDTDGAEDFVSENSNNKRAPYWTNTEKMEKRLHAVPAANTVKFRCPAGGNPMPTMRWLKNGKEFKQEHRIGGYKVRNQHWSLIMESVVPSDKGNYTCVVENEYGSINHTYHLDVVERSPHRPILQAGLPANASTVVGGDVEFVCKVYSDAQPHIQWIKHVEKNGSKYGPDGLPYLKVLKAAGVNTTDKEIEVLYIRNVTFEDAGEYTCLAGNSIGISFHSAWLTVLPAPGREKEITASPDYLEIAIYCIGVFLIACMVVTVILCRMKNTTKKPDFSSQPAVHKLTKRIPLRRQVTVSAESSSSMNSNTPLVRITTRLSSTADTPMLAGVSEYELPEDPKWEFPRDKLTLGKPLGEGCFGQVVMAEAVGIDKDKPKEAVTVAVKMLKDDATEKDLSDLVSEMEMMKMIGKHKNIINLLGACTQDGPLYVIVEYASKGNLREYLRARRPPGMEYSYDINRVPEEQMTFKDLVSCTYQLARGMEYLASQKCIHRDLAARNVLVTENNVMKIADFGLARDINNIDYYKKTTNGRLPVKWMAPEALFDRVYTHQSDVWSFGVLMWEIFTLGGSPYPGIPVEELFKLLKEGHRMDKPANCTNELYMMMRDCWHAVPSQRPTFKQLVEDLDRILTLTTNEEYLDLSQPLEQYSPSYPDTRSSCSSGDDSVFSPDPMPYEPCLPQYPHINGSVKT

SMILES | melting point [°C] | IC50 (FGFR2 (h)) [nM] | IC50 ([1]; plus 10 ng/ml murine IL3) [nM] | IC50 (FGFR3 (h)) [nM] | IC50 [2, 4] [nM] | IC50 [2, 5] [nM] | BAF3-FGFR 1 (MIN IL3) 96 well pIC50 [3] | BAF3-FGFR 1 (MIN IL3) 384 well pIC50 [3] | IC50 (FGFR4 (h)) [nM] | BAF3-FLT3 (PLUS IL3) 384 well pIC50 ([1]; plus 10 ng/ml murine IL3) | BAF3-FGFR 1 (PLUS IL3) 384 well pIC50 ([2]; plus IL3, 384 well) | IC50 ([1]; plus IL3, 384 well) [nM]
COc1cc(OC)cc(N(CC2CC2)c2ccc3ncc(-n4cnc(C)c4)nc3c2)c1 [Compound 30] | 113 | 67.6 | > 10000 | 26.9 | > 10000 | > 10000 | 5.03 | 5.32 | 214 |  |  | 
COc1cc(OC)cc(N(CC2CC2)c2ccc3ncc(-c4ocnc4C)nc3c2)c1 [Compound 104] | 141 | ~417 | > 10000 | 117 |  | > 10000 |  | <5 | 575 |  |  | 
COCCCN(c1cc(OC)cc(OC)c1)c1ccc2ncc(-c3ccn(C)c3)nc2c1 [Compound 3] |  | 19.5 | > 10000 | 10 |  | > 10000 |  | 5.91 | 38.9 |  |  | 
CNC(=O)c1cc(-c2cnc3ccc(N(CCNC(C)C)c4cc(OC)cc(OC)c4)cc3n2)ccn1 [Compound 14] | 68 | 5.62 | > 10000 | 9.55 |  | ~7080 |  | 6.61 | 41.7 |  |  | 
CNC(=O)c1cc(-c2cnc3ccc(N(CCCNCC(F)(F)F)c4cc(OC)cc(OC)c4)cc3n2)ccn1 [Compound 122] |  | 46.8 | > 10000 | 37.2 |  | > 10000 |  | 5.29 | 316 |  |  | 
COc1cc(OC)cc(N(CC2CC2)c2ccc3ncc(-c4ccn(CCO)c4)nc3c2)c1 [Compound 56] | 143 |  | > 10000 |  | > 10000 | > 10000 |  |  |  |  |  | 
COc1cc(OC)cc(N(CCO)c2ccc3ncc(-c4ccc(OC)nc4)nc3c2)c1 [Compound 111] | 195 | 23.4 | > 10000 | 9.77 |  | > 10000 |  | 5.65 | 70.8 |  |  | 
COc1cc(OC)cc(N(CCCNCC(F)(F)F)c2ccc3ncc(-c4ccc(N(C)C(=O)OC(C)(C)C)nc4)nc3c2)c1 [Compound 127] |  | 363 | > 10000 | 331 |  | > 10000 |  | <5 | 912 |  |  | 
COc1cc(OC)cc(N(CC(O)C(F)(F)F)c2ccc3ncc(-c4cccnc4)nc3c2)c1 (single isomer, unassigned) [Compound 53] | 211 |  | > 10000 |  |  | > 10000 |  |  |  |  |  | 
COc1cc(OC)cc(N(CCNC(C)C)c2ccc3ncc(-c4cccnc4)nc3c2)c1 [Compound 10] |  | 5.89 | 9330 | 10.2 |  | > 10000 |  | 7.55 | 23.4 |  |  | 
COc1cc(OC)cc(N(CC2CC2)c2ccc3ncc(-c4ccn(C)c4)nc3c2)c1 [Compound 73] | 110 |  | > 10000 |  | > 10000 | > 10000 |  |  |  |  |  | 
COc1cc(OC)cc(N(CC2CC2)c2ccc3ncc(-c4cnn(C)n4)nc3c2)c1 [Compound 70] | 129 |  | > 10000 |  | > 10000 | > 10000 |  |  |  |  |  | 
COc1cc(OC)cc(N(CC2CC2)c2ccc3ncc(-c4ccnn4C)nc3c2)c1 [Compound 18] | 132 |  | > 10000 |  | > 10000 | > 10000 |  |  |  |  |  | 
COc1cc(OC)cc(N(CCCO)c2ccc3ncc(-c4ccc(N5CCOCC5)nc4)nc3c2)c1 [Compound 124] |  |  | > 10000 | 3.39 |  | > 10000 |  | 6.24 | 33.1 |  |  | 
CCOC(=O)c1ncn(-c2cnc3ccc(N(CC4CC4)c4cc(OC)cc(OC)c4)cc3n2)c1C [Compound 65] |  | > 1000 | > 10000 | > 1000 | > 10000 | > 10000 | <5 | <5 | > 1000 |  |  | 
COc1cc(OC)cc(N(CC(O)CO)c2ccc3ncc(-c4ccc(N)nc4)nc3c2)c1 (centres unmarked) [Compound 74] |  | 11.5 | > 10000 | 4.37 |  | > 10000 |  | 6.62 | 26.9 |  |  | 
COc1cc(OC)cc(N(CC2CC2)c2ccc3ncc(Nc4cnn(C)c4)nc3c2)c1 [Compound 61] | 160 |  | > 10000 |  | 6920 | > 10000 |  |  |  |  |  | 
COc1cc(OC)cc(N(CC2CC2)c2ccc3ncc(-c4ccn[nH]4)nc3c2)c1 [Compound 58] |  | 537 | 8320 | 81.3 | > 10000 | > 10000 | <5 |  | 550 |  |  | 
COc1cc(OC)cc(N(CCCO)c2ccc3ncc(-c4ccc(F)nc4)nc3c2)c1 [Compound 117] |  | 22.4 | > 10000 | 11.7 |  | > 10000 |  | 6.67 | 87.1 |  |  | 
COc1cc(OC)cc(N(CC2CC2)c2ccc3ncc(-c4cn(C)nn4)nc3c2)c1 [Compound 71] | 141 |  | > 10000 |  | > 10000 | > 10000 |  |  |  |  |  | 
COc1cc(OC)cc(N(CC2CC2)c2ccc3ncc(-n4ccnc4C)nc3c2)c1 [Compound 32] |  | 575 | > 10000 | 479 | > 10000 | > 10000 | <5 | <5 | > 1000 |  |  | 
COc1cc(OC)cc(N(CC(OC(C)=O)C(F)(F)F)c2ccc3ncc(-c4cccnc4)nc3c2)c1 (single isomer, unassigned) [Compound 75] | 180 |  |  |  |  |  |  |  |  | <5 | <5 | 
COc1cc(OC)cc(N(CC2CC2)c2ccc3ncc(-c4cn(C)cn4)nc3c2)c1 [Compound 21] | 136 |  | > 10000 |  | > 10000 | > 10000 |  |  |  |  |  | 
COc1cc(OC)cc(N(CC2CC2)c2ccc3ncc(-c4ccc5c(ccn5C)c4)nc3c2)c1 [Compound 20] |  |  |  |  |  | > 10000 |  |  |  |  |  | > 10000
COc1cc(OC)cc(N(Cc2cccc(CN)n2)c2ccc3ncc(-c4ccc(N)nc4)nc3c2)c1 [Compound 51] |  | 8.91 | ~7080 | 11 |  | > 10000 |  | 5.88 | 69.2 |  |  | 
COc1cc(OC)cc(N(CC2CC2)c2ccc3ncc(-c4cc[nH]c4)nc3c2)c1 [Compound 36] |  |  | > 10000 |  | > 10000 | > 10000 |  |  |  |  |  | 
COc1cc(OC)cc(N(CC(O)C(F)(F)F)c2ccc3ncc(-c4cccnc4)nc3c2)c1 (single isomer, unassigned) [Compound 54] | 210 |  |  |  |  |  |  |  |  | <5 | <5 | 
COc1cc(OC)cc(N(CCNC(C)C)c2ccc3ncc(-c4ccn(C)c4)nc3c2)c1 [Compound 8] |  | 2.63 | > 10000 | 2.34 |  | > 10000 |  | 8.13 | 3.47 |  |  | 
COc1cc(OC)cc(N(CCCO)c2ccc3ncc(-c4ccc(N(C)C(=O)OC(C)(C)C)nc4)nc3c2)c1 [Compound 125] | 143 | 309 |  | 81.3 |  |  |  | 5.37 | 174 |  |  | 
COc1cc(OC)cc(N(CC(OC(C)=O)C(F)(F)F)c2ccc3ncc(-c4cccnc4)nc3c2)c1 (single isomer, unassigned) [Compound 45] |  |  | > 10000 |  |  | > 10000 |  |  |  |  |  | 

Source: US10052320B2, “Substituted quinoxalines as FGFR kinase inhibitors” (ASTEX THERAPEUTICS LIMITED, priority 2011, dated 2018)
